Results from US20260193250A1, “TOLL-LIKE RECEPTOR 7 AGONISTS AS IMMUNE-STIMULATORS TO ELICIT THE INNATE ANTITUMOR IMMUNITY” (Merck Patent GmbH, priority 2022, published 2026).

Columns and labels:
hTLR7 = molecular target: T1, hTLR7 (Homo sapiens, UniProt Q9NYK1); test: TLR7 reporter assay in HEK-Blue cells (SEAP, Quanti-Blue); type: cell-based; conditions: 24 hours incubation, SEAP absorbance at 620 nm
T1 construct: host or cells: HEK-Blue hTLR7 (HEK293-derived SEAP reporter cells)
T1 sequence (Q9NYK1 27-1049): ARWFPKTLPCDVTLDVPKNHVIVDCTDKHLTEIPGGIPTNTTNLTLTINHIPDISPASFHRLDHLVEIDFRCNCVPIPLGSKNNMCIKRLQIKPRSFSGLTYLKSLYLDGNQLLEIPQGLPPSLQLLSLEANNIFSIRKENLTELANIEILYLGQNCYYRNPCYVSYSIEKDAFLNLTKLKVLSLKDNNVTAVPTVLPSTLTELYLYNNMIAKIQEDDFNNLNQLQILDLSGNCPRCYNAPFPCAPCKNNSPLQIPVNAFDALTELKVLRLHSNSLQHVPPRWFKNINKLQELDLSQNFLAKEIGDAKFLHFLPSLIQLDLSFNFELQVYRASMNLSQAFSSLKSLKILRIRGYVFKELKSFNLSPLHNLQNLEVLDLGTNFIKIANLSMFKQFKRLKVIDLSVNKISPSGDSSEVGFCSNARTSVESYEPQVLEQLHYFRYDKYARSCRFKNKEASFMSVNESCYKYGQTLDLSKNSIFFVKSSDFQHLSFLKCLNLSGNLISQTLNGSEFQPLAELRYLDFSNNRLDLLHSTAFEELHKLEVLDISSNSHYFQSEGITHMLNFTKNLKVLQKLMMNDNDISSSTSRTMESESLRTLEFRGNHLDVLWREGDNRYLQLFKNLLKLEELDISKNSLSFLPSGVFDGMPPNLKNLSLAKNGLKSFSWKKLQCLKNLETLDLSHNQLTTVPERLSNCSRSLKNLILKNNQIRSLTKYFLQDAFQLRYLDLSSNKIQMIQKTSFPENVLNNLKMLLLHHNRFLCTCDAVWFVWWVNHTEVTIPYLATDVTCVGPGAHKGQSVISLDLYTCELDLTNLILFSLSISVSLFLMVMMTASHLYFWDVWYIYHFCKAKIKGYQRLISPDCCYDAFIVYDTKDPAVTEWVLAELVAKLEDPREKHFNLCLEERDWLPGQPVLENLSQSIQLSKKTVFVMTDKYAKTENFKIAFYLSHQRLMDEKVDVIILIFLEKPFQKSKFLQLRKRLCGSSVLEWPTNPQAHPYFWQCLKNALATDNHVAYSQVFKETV
Method: HEK-Blue™ TLR7 and TLR8 cell lines were obtained from InvivoGen (San Diego, CA, USA). HEK-Blue cells were cultured in DMEM medium hi glucose (Gibco-10569010) supplemented with 10% HI-FBS (Aus origin) (Gibco-10100-147), 1% penicillin/streptomycin (Gibco-15140-122-100 ml) as per manufacturer's recommendation. In addition, specific antibiotic mixtures were added to the culture. 100 μg/ml Zeocin (11006-33-0), 10 μg/ml Blasticidin (ant-bl-05), 50 μg/ml Normocin (ANT-NR-1-500 MG) for HEK-Blue™ hTLR7 and 100 μg/ml Zeocin, 30 μg/ml Blasticidin, 50 μg/ml Normocin for HEK-Blue™ hTLR8 cells (all from InvivoGen).
All the compounds were prepared in 100% DMSO (Sigma-D2650). The compounds were serially diluted in 100% DMSO (3 fold) up to 10 point dose response curve starting with 30 μM; final concentration of DMSO in the plate was 0.3%. Resiquimod and TL8-506 (InvivoGen-tlrl-t18506) were used as controls. 0.3% DMSO and 10 μM Resiquimod were used as min and max respectively, and % activation was calculated using following formula:
% Activation: {100−(max absorbance−absorbance)/(max absorbance−min absorbance)}×100.
For stimulation with TLR7/8 agonists, cells were resuspended in complete media and 40 μl of cell suspension (10,000 cells/well) was seeded on day 1 in 384 well assay plate (Thermo Scientific™ Nunc-164688) having pre-dispensed compounds with Echo Liquid handler. The plate was spun at 100 g for 1 min to settle down the cells and incubated at 37° C. with 5% CO2 for 24 hours. For measuring production of SEAP after 24 hrs of incubation, 10 μl of Quanti-Blue™ solution (InvivoGen rep-qbs2) prepared according to manufacturer's instructions was added in dark to the assay plate and incubated at 37° C. with 5% CO2 for 30 min. Post incubation, the absorbance was measured at 620 nm in Tecan spark (Spark control Magellan). EC50 were determined using Graph Pad Prism Statistical software (Version 7.05), with individual data points represent the absorbance values of duplicates.

[1] = system: Peripheral blood mononuclear cells (PBMC); test: TNFα secretion from PBMCs; type: cell-based; conditions: human PBMCs, 18 hours incubation, MILLIPLEX bead panel
Method: Peripheral blood mononuclear cells (PBMC) were isolated from healthy human volunteers and banked in liquid nitrogen. Vial of frozen PBMC was thawed in 37° C. water bath for no more than 2 minutes. The contents of the tube were aseptically transferred to pre-warmed complete media containing RPMI basal media (Gibco-21875034) supplemented with 10% HI-FBS (Aus origin) (Gibco-10100-147) and 1% penicillin/streptomycin (Gibco-15140-122-100 ml) followed by centrifugation. Cells were resuspended in complete media (3 ml) and counted using haemocytometer.
All selected compounds (Five benchmark and 15 example molecules) were prepared in 100% DMSO (Sigma-D2650) (10 mM stock). The compounds were serially diluted in 100% DMSO (4 fold) up to 8 point DRC in U-bottom 96 well plate (Cellstar-650180). 3 μl of this serially diluted DRC was mixed with 97 μl of completed media (1:33.33) as intermediate dilution (300 μM) 3% DMSO. 11 μl of compounds from intermediate dilution was added to the PBMC plate (1:10) such that final concentration of DMSO in the culture plate is 0.3% and starting concentration of the compounds is 30 μM. Resiquimod (30 μM) and DMSO (0.3%) were used as positive and negative controls respectively.
The plate was incubated at 37° C. with 5% CO2 for 18 hours. Post incubation, the plate was spun at 2000 rpm for 5 min and supernatant was gently aspired and collected in protein low binding V-bottom 96 well plates (Thermo Fisher-249944). The supernatant plates were sealed, labelled appropriately and stored at −80° C. till cytokine analysis (<1 month).
MILLIPLEX MAP Human Cytokine/Chemokine Magnetic Bead Panel kit (HCYTOMAG-60K) was used for measuring TNF alpha as per the kit's recommendation.
EC50 were determined using Graph Pad Prism Statistical software (Version 7.05), with individual data points represent the absorbance values of duplicates.

Row | Compound | EC50 (hTLR7) | EC50 [1]
1 | CCOCc1nc2c(N)nc3ccccc3c2n1CC(C)(C)OCCCN1CCN(C)CC1 [Example 2] | 0.01 to 0.1 µM | 0.1 to 1 µM
2 | CCOCc1nc2c(N)nc3ccccc3c2n1CC(C)(C)OCCCCN1CCOCC1 [Example 7] | 0.01 to 0.1 µM | 0.1 to 1 µM
3 | CCOCc1nc2c(N)nc3ccccc3c2n1CC(C)(C)OCCCCN1CCN(CC(C)(C)SC)CC1 [Example 27] | 0.01 to 0.1 µM | 1 to 10 µM
4 | CCOCc1nc2c(N)nc3ccccc3c2n1CC(C)(C)OCCCCN1CCCC1 [Example 9] | 0.01 to 0.1 µM | > 10 µM
5 | CCOCc1nc2c(N)nc3ccccc3c2n1CC(C)(C)OCCCCCN1CCN(C)CC1 [Example 4] | < 0.01 µM | < 0.1 µM
6 | CCOCc1nc2c(N)nc3ccccc3c2n1CC(C)(C)OCCCCN1CCN(CCN)CC1 [Example 11] | 0.1 to 1 µM | 1 to 10 µM
7 | CCOCc1nc2c(N)nc3ccccc3c2n1CC(C)(C)OCCCCN1CCN(C)CC1 [Example 3] | < 0.01 µM | < 0.1 µM
8 | CCOCc1nc2c(N)nc3ccccc3c2n1CC(C)(C)OCCCCN1CCNCC1 [Example 10] | 0.01 to 0.1 µM | 0.1 to 1 µM
9 | CCOCc1nc2c(N)nc3ccccc3c2n1CC(C)(C)OCCCCN1CCCCC1 [Example 8] | 0.01 to 0.1 µM | 1 to 10 µM

Now from value to molecule, other results behind:

Row | EC50 (hTLR7) | Compound | EC50 [1]
10 | 1 to 10 µM | CCNCc1nc2c(N)nc3ccccc3c2n1CC(C)(C)OCCCCN1CCN(C)CC1 [Example 18] | 1 to 10 µM
11 | 0.1 to 1 µM | CCOCc1nc2c(N)nc3ccccc3c2n1CC(C)(C)OC(=O)CN [Example 19] | < 0.1 µM
12 | 0.01 to 0.1 µM | CCOCc1nc2c(N)nc3ccccc3c2n1CC(C)(C)OCCCCn1cc(CO)nn1 [Example 13] | 0.1 to 1 µM
13 | 0.01 to 0.1 µM | CCOCc1nc2c(N)nc3ccccc3c2n1CC(C)(C)OCCCCn1cc(CN)nn1 [Example 14] | 0.1 to 1 µM
